How the values were obtained:
[1] = tested on: B-16 mouse melanoma cells; assay: Measurement of melanin generation inhibitory effects in cultured melanoma cells; format: cell-based; conditions: for inhibition at 20 µg/mL: concentration 20 μg/ml
[2] = tested on: B-16 mouse melanoma cells; conditions: 1 μg/ml or more
Method: Then, these cells were treated using trypsin, separated from a culture vessel and centrifuged, then, melanin was extracted from the cells. Melanin was dissolved by adding 1 ml of 1N sodium hydroxide solution to the extract and subjected to measurement of absorbance at 475 nm, and an amount of the generated melanin was expressed by an absorbance per unit number of cells (10^6 cells) (this procedure was repeated three times).

[3] = Mus musculus, 72 h, concentration 5 μg/ml, cultured 3 days, relative to control, read-out: Inhibition rate (melanin generation)
[4] = Mus musculus, 72 h, cultured 3 days, relative to control, read-out: Inhibition rate (melanin generation)

Compound	inhibition at 5 µg/mL [1, 3]	inhibition at 20 µg/mL [1, 4]	inhibition at 1 µg/mL ([1]; Mus musculus, 72 h, concentration 1 μg/ml, cultured 3 days, relative to control, read-out: Inhibition rate (melanin generation))	Inhibition rate (melanin generation) ([1]; concentration 5 μg/ml, cultured 3 days, relative to control)	Melanin generation inhibitory effects (in words) ([1]; cultured mouse melanoma cells, comparison with hydroquinone)	Cytotoxicity [2]
CC(C)=CC(=O)Oc1cccc(OC(=O)C=C(C)C)c1 [Material in Example 3, 1,3-bis-(3-methyl-2-butenoyloxy)-benzene]	53%	83%				
CCCC(=O)Oc1cccc(OC(=O)CCC)c1 [Material in Example 1, 1,3-bis-butyryloxy-benzene]	43%	68%				
CCCCCCCCCCCC(=O)Oc1cccc(OC(=O)CCCCCCCCCCC)c1 [Material in Example 7, 1,3-bis-lauroyloxy-benzene]	21%	43%				
CCCCC(CC)C(=O)Oc1cc(C=Cc2ccc(OC(=O)C(CC)CCCC)c(OC(=O)C(CC)CCCC)c2)cc(OC(=O)C(CC)CCCC)c1 (stereo not drawn) [Material in Example 18, 3,4,3′,5′-tetrakis-(2-ethylhexanoyloxy)-stilbene]	47%	72%				
CCCCC(CC)C(=O)Oc1ccc(-c2cc(=O)c3c(OC(=O)C(CC)CCCC)cc(OC(=O)C(CC)CCCC)cc3o2)cc1 (stereo not drawn) [Material in Example 14, 5,7,4′-tris-(2-ethylhexanoyloxy)-flavone]	31%	57%				
CCCCC(CC)C(=O)Oc1ccc(C=Cc2cc(OC(=O)C(CC)CCCC)cc(OC(=O)C(CC)CCCC)c2)cc1 (stereo not drawn) [Material in Example 11, 3,4′,5-tris-(2-ethylhexanoyloxy)-stilbene]	31%	54%				
CCCCC(CC)C(=O)Oc1cccc(OC(=O)C(CC)CCCC)c1OC(=O)C(CC)CCCC (stereo not drawn) [Material in Example 10, 1,2,3-tris-(2-ethylhexanoyloxy)-benzene]	38%	65%				
CCCCC(CC)C(=O)Oc1cc2oc(-c3ccccc3)cc(=O)c2c(OC(=O)C(CC)CCCC)c1OC(=O)C(CC)CCCC (stereo not drawn) [Material in Example 15, 5,6,7-tris-(2-ethylhexanoyloxy)-flavone]	39%	72%				
CCCCC(CC)C(=O)Oc1ccc(C2CC(=O)c3c(OC(=O)C(CC)CCCC)cc(OC(=O)C(CC)CCCC)cc3O2)cc1 (stereo not drawn) [Material in Example 16, 4′,5,7-tris-(2-ethylhexanoyloxy)-flavanone]	41%	59%				
CCCCC(CC)C(=O)Oc1ccnc(OC(=O)C(CC)CCCC)c1 (stereo not drawn) [Material in Example 9, 2,4-bis-(2-ethylhexanoyloxy)-pyridine]	41%	67%				
CCCCC(=O)Oc1cccc(OC(=O)CCCC)c1 [Material in Example 2, 1,3-bis-pentanoyloxy-benzene]	52%	85%				
CCCCC(CC)C(=O)Oc1cc(OC(=O)C(CC)CCCC)c2ccccc2c1 (stereo not drawn) [Material in Example 8, 1,3-bis-(2-ethylhexanoyloxy)-naphthalene]	35%	63%				
CCCCC(CC)C(=O)Oc1ccc(-c2coc3cc(OC(=O)C(CC)CCCC)cc(OC(=O)C(CC)CCCC)c3c2=O)cc1 (stereo not drawn) [Material in Example 12, 4′,5,7-tris-(2-ethylhexanoyloxy)-isoflavone]	35%	65%				
CCCCCCCC(=O)Oc1cccc(OC(=O)CCCCCCC)c1 [Material in Example 4, 1,3-bis-octanoyloxy-benzene]	41%	71%				
CCCCC(CC)C(=O)Oc1cc(OC(=O)C(CC)CCCC)c2c(c1)OC(c1ccc(OC(=O)C(CC)CCCC)c(OC(=O)C(CC)CCCC)c1)C(OC(=O)C(CC)CCCC)C2 (stereo not drawn) [Material in Example 19, 3,3′,4′,5,7-pentakis-(2-ethylhexanoyloxy)-flavane]	39%	69%				
CCCCCCCCCC(=O)Oc1cccc(OC(=O)CCCCCCCCC)c1 [Material in Example 6, 1,3-bis-decanoyloxy-benzene]	32%	53%				
CCCCC(CC)C(=O)Oc1cccc(OC(=O)C(CC)CCCC)c1 (stereo not drawn) [Material in Example 5, 1,3-bis-(2-ethyl-hexanoyloxy)-benzene]	45%	79%				
CCCCC(CC)C(=O)Oc1cc(OC(=O)C(CC)CCCC)c2c(=O)c(OC(=O)C(CC)CCCC)c(-c3ccccc3)oc2c1 (stereo not drawn) [Material in Example 13, 3,5,7-tris-(2-ethylhexanoyloxy)-flavone]	30%	63%				
Oc1ccc(O)cc1 [Hydroquinone, hydroquinone, reference compound]			52%	Apoptosis	strong effects of inhibiting melanin generation at a low concentration	serious cytotoxicity
CCCCC(CC)C(=O)Oc1ccc(-c2oc3cc(OC(=O)C(CC)CCCC)cc(OC(=O)C(CC)CCCC)c3c(=O)c2OC(=O)C(CC)CCCC)cc1 (stereo not drawn) [Material in Example 17, 3,5,7,4′-tetrakis-(2-ethylhexanoyloxy)-flavone]	32%	69%				

Reference: patent publication US20150283051A1, “DERIVATIVE OF NOVEL POLYHYDROXY AROMATIC COMPOUND AND USE THEREOF” (RNS CO.,LTD., priority 2012, published 2015)
